Experimental data taken from patent US5338874A, “Cis oxalato (trans 1-1,2-cyclohexanediamine) PT(II) having optically high purity” (Tanaka Kikinzoku Kogyo K.K., priority 1993, dated 1994).

Tested on: L1210
Experiment: Tumor resistance against L1210 (i.p. transplanted, CDF1 mice), T/C
Type: in vivo
Parameters: key to Toxic mark (T: large weight loss): P: Effective (Over 125%); Toxic (Large Weight Loss)
Settings: for Cured mice out of six / Toxic mark (T: large weight loss): i.p. on days 1, 5 and 9
Protocol: The test was conducted by prescribing L1210 in a peritoneal cavity of six CDF1 mice/one group (the number of transplanted cells is […] per mouse and prescribing the medicine in the poritoncal cavity on a first day, a fifth day and a ninth day.

Structure (SMILES)	Cured mice out of six (6.25 mg/kg)	Cured mice out of six (12.5 mg/kg)	Toxic mark (T: large weight loss) (25 mg/kg)	Tumor Resistance T/C (%) (25 mg/kg, i.p. on days 1, 5 and 9, six CDF1 mice/group)	Cured mice out of six (6.25 mg/kg, listed as Example 2)	Cured mice out of six (6.25 mg/kg, listed as Example 3)	Cured mice out of six (12.5 mg/kg, listed as Example 2)	Cured mice out of six (12.5 mg/kg, listed as Example 3)	Activity against tumor leukemia L1210 (in words) (high optical purity compound)
N[C@@H]1CCCC[C@H]1N.O=C([O-])C(=O)[O-].[Pt+2] (relative stereo) [Comp. Ex., cis-oxalate(trans-1-1,2-cyclohexanediamine) Pt(II), reference compound]	1/6	4/6	T	81	–	–	–	–	–
N[C@@H]1CCCC[C@H]1N.O=C([O-])C(=O)[O-].[Pt+2] (relative stereo) [Example 1, cis-oxalato (trans-1-1,2-cyclohexanediamine) Pt(II)]	3/6	2/6	T	–	3/6	3/6	2/6	2/6	active against a tumor "leukomia L1210"
